Patent US20220362174A1, “Use of R-enantiomer Beta2-agonists for prevent and treatment of pulmonary inflammation and inflammatory remodeling for reduced adverse effects” (priority 2019, published 2022)

Assays:
Format in all cases: cell-based
[1] = test system: LPS-induced macrophages RAW264.7 cells; experiment: Ratio of GSH/GSSG
From the text: The ratio of GSH to GSSG is a marker of oxidative stress.

[2] = test system: iNOS; experiment: iNOS mRNA and protein levels
Experimental: (§1) In addition, the concentration of NO in the culture supernatant was measured by assaying the concentrations of nitrite (a stable NO breakdown product) using the Griess assay. […] To investigate (R)-salbutamol role on the level of iNOS, the mRNA and protein levels of iNOS were determined.

[3] = test system: LPS-induced RAW264.7 cells; experiment: Seahorse analysis of OCR and ECAR
Experimental: (§2) Macrophages were treated without or with (R)/(S)-salbutamol for 1 h prior to LPS stimulation and subsequently incubated for 12 h. […] The fluorescence of the oxidized product (2′,7′-dichlorofluorescein, DCF) was assessed using an LSM710 Laser Scanning Confocal Microscope (Carl Zeiss, Jena, Germany). The concentration of NO in the culture supernatant was measured by assaying the concentrations of nitrite (a stable NO breakdown product) using the Griess assay (Beyotime, Shanghai, China), according to the manufacturer's instructions. The intracellular NO level was detected using the NO-sensitive fluorescence probe DAF-FM DA (Sigma, St. Louis, Mo., USA) (24). Cells were labeled with DAF-FM DA (10 μM) at 37° C. for 30 min and were gently washed three times with PBS. Fluorescence was detected using a LSM710 Laser Scanning Confocal Microscope (Scale bars, 100 μm) (Carl Zeiss, Jena, Germany).
Macrophage activation elicited different metabolic profiles. LPS-induced macrophages adopted glycolytic metabolic profiles. This invention disclosed a β2 adrenergic receptor mediated Warburg metabolism (aerobic glycolysis) of in LPS treated macrophages. The OCR and ECAR were measured using an extracellular flux analyzer. […] ECAR is a measurement extracellular acidification rate, an indication of cellular glycolytic rate.

[4] = test system: LPS-induced RAW264.7 cells; experiment: NO production (DAF-FM DA probe, Griess assay); settings: treatment with ICI-118551 in (R)-salbutamol/LPS cells
Experimental: as §2, §1

[5] = test system: LPS-induced RAW264.7 cells; experiment: mRNA expression of TNF-α, IL-1β and MCP-1 by quantitative real-time PCR; settings: ICI-118551-treated cells compared to the control group
Experimental: as §2
To examine the mRNA expression of TNF-α, IL-1β and MCP-1, quantitative real-time PCR was performed. Consistent with the cytokine expression study, the mRNA expression of TNF-α was increased by 2.26-fold in the LPS-induced group compared to the control group (FIG. 8D). The mRNA expression of IL-1β and MCP-1 increased by 12.74-fold (FIG. 8E) and 3.1-fold, respectively, in the LPS-induced group compared to the control group (FIG. 8F).

[6] = test system: LPS-induced RAW264.7 cells; experiment: M1/M2 macrophage polarization by flow cytometry; settings: pretreated with (R)-salbutamol following incubation with ICI-118551, LPS
Experimental: as §2
Macrophages M1 (F4/80+/CD11c+/CD206−) and M2 (F4/80+/CD11c−/CD206+) polarization were analyzed using flow cytometry.

Question: Which results are given for Cc1ccc(OCC(O)C(C)NC(C)C)c2c1CCC2 (centres unmarked) [ICI-118551, reference compound]?
Answer: effect of (R)-salbutamol on GSH/GSSG with ICI-118551 [1]: blocked; effects of (R)-salbutamol on iNOS when adding ICI-118551 [2]: blocked; metabolism shift by (R)-salbutamol with ICI-118551 treatment [3]: blocked; NO levels [4]: increased NO levels; mRNA expression of IL-1β, increase [5]: 12.41 fold; mRNA expression of MCP-1, increase [5]: 3.36 fold; mRNA expression of TNF-α, increase [5]: 2.28 fold; percentage of M1 macrophages [6]: 55.8%
